Source: US20100216802A1, “PTERIDINE DERIVATIVES AS POLO-LIKE KINASE INHIBITORS USEFUL IN THE TREATMENT OF CANCER” (CHROMA THERAPEUTICS LTD., priority 2006, published 2010)
Read-outs that look alike come from different tables or passages of the source.

Key:
PLK1 = biological target: T1, PLK1 (Homo sapiens, UniProt P53350); experiment: PLK1 enzyme assay (Z'-LYTE, Invitrogen); format: biochemical
T1 construct: purchased Invitrogen (Paisley, UK)
Method: The ability of compounds to inhibit PLK-1 kinase activity was measured in an assay performed by Invitrogen (Paisley, UK). The Z′-LYTE™ biochemical assay employs a fluorescence-based, coupled-enzyme format and is based on the differential sensitivity of phosphorylated and non-phosphorylated peptides to proteolytic cleavage. The peptide substrate is labelled with two fluorophores—one at each end—that make up a FRET pair. In the primary reaction, the kinase transfers the gamma-phosphate of ATP to a single serine or threonine residue in a synthetic FRET-peptide. In the secondary reaction, a site-specific protease recognizes and cleaves non-phosphorylated FRET-peptides. Phosphorylation of FRET-peptides suppresses cleavage by the Development Reagent. Cleavage disrupts FRET between the donor (i.e., coumarin) and acceptor (i.e., fluorescein) fluorophores on the FRET-peptide, whereas uncleaved, phosphorylated FRET-peptides maintain FRET. A […] method, which calculates the ratio (the Emission Ratio) of donor emission to acceptor emission after excitation of the donor fluorophore at 400 nm, is used to quantitate reaction progress.
The assay is performed at an ATP concentration at, or close to, the Km. After the 60 minute Kinase Reaction incubation at RT, 5 μL of a 1:8 dilution of Development Reagent is added. The assay plate is incubated for a further 60 minutes at RT and read on a fluorescence plate reader.
Duplicate data points are generated from a ⅓ log dilution series of a stock solution of test compound in DMSO. Nine dilutions steps are made from a top concentration of 10 μM, and a ‘no compound’ blank is included. Data is collected and analysed using XLfit software from IDBS.

HCT 116 cell line = experiment: Cell inhibition assay method A (WST-1, 120 hrs); format: cell-based; conditions: Homo sapiens, HCT-116, method A, read-out: Inhibitor Activity vs HCT 116 cell line (method A)
Method: Cell inhibition assays were carried out using either method A or method B
Cells were seeded in 96W tissue culture plates (1 well=30 mm^2) at a density of […] per well in 50 μL of the appropriate culture medium (see below). 24 hrs later […] of the compound prepared in the same medium was added as 4 fold dilutions to give final concentrations in the range 0.15 nM-2500 nM (n=6 for each concentration). The plates were then incubated at 37° C., 5% CO2 for 120 hrs. Cell proliferation was assessed using WST-1 (a metabolic indicator dye, Roche Cat no. 1 644 807) according to the manufacturers instructions. The results were calculated as percentage of vehicle response and IC50 values represent the concentration of compound that inhibited the vehicle response by 50%.
HCT-116 culture medium —Dulbeccos MEM (Sigma D6546) plus 10% heat inactivated fetal calf serum (Hyclone SH30071 Thermo Fischer Scientific) containing 2 mM Glutamine (Sigma cat no G-7513) and 50 U/ml Penicillin and Streptomycin Sulphate (Sigma Cat no P-0781).

[1] = ATP at or close to Km, read-out: Inhibitor Activity vs PLK1

T1 sequence (P53350 whole entry): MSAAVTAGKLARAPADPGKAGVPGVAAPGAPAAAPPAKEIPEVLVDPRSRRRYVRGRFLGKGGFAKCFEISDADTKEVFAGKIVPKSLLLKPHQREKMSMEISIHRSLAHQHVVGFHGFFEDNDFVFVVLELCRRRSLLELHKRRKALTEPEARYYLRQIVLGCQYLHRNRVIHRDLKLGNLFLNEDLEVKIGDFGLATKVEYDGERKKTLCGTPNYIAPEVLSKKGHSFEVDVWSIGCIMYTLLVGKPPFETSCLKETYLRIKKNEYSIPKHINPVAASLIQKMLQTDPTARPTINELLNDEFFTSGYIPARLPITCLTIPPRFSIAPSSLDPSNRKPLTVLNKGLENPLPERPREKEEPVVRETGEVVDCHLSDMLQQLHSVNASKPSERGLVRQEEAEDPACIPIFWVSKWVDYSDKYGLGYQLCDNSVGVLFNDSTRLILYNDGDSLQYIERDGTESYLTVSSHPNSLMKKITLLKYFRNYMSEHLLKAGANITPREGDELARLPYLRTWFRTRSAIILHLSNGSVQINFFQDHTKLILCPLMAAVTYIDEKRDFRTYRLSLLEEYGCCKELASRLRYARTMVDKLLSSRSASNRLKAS

Row | SMILES | IC50 (PLK1; [1]) | IC50 (PLK1; acid of the ester, read-out: Inhibition of PLK (IC50, nM) acid) | IC50 (HCT 116 cell line)
1 | CC[C@@H]1C(=O)N(C)c2cnc(Nc3ccc(C(=O)N[C@@H]4CN[C@H](C(=O)O)C4)cc3OC)nc2N1C1CCCC1 [Example 39, (4S)-4-[(4-{[(7R)-8-Cyclopentyl-7-ethyl-5-methyl-6-oxo-5,6,7,8-tetrahydropteridin-2-yl]amino}-3-methoxybenzoyl)amino]-L-proline] | < 100 nM | – | –
2 | CC[C@@H]1C(=O)N(C)c2cnc(Nc3ccc(C(=O)NC4CCN(CC[C@H](N)C(=O)O)CC4)cc3OC)nc2N1C1CCCC1 [Example 53, (2S)-2-amino-4-{4-[(4-{[(7R)-8-cyclopentyl-7-ethyl-5-methyl-6-oxo-5,6,7,8-tetrahydropteridin-2-yl]amino}-3-methoxybenzoyl)amino]piperidin-1-yl}butanoic acid] | < 100 nM | 6 nM | –
3 | CC[C@@H]1C(=O)N(C)c2cnc(Nc3ccc(C(=O)NC4CCN(CC[C@@H](N)C(=O)OC5CCCC5)CC4)cc3OC)nc2N1C1CCCC1 [Example 31, Cyclopentyl (2R)-2-amino-4-{4-[(4-{((7R)-8-cyclopentyl-7-ethyl-5-methyl-6-oxo-5,6,7,8-tetra hydropteridin-2-yl]amino}-3-methoxybenzoyl)amino]piperidin-1-yl}butanoate] | < 100 nM | – | < 0.1 µM
4 | CC[C@@H]1C(=O)N(C)c2cnc(Nc3ccc(/C=C/C[C@H](N)C(=O)O)cc3)nc2N1C1CCCC1 [Example 35, (2S,4E)-2-Amino-5-(4-{[(7R)-8-cyclopentyl-7-ethyl-5-methyl-6-oxo-5,6,7,8-tetrahydropteridin-2-yl]amino}phenyl)pent-4-enoic acid] | < 100 nM | – | –
5 | CC[C@@H]1C(=O)N(C)c2cnc(Nc3ccc(C(=O)Nc4ccc(C[C@H](N)C(=O)OC(C)(C)C)cc4)cc3OC)nc2N1C1CCCC1 [Example 11, tert-Butyl 4-[(4-{[(7R)-8-cyclopentyl-7-ethyl-5-methyl-6-oxo-5,6,7,8-tetrahydropteridin-2-yl]amino}-3-methoxybenzoyl)amino]-L-phenylalaninate] | < 100 nM | – | 0.1 to 0.5 µM
6 | CC[C@@H]1C(=O)N(C)c2cnc(Nc3ccc(C(=O)NC4CCN(CC[C@H](N)C(=O)O)CC4)cc3F)nc2N1C1CCCC1 [Example 49, (2S)-2-Amino-4-{4-[(4-{[(7R)-8-cyclopentyl-7-ethyl-5-methyl-6-oxo-5,6,7,8-tetra hydropteridin-2-yl]amino}-3-fluorobenzoyl)amino]piperidin-1-yl}butanoic acid] | < 100 nM | – | –
7 | CC[C@@H]1C(=O)N(C)c2cnc(Nc3ccc(C(=O)NC4CCN(CCC[C@H](N)C(=O)O)CC4)cc3OC)nc2N1C1CCCC1 [Example 46, 5-{4-[(4-{[(7R)-8-Cyclopentyl-7-ethyl-5-methyl-6-oxo-5,6,7,8-tetrahydropteridin-2-yl]amino}-3-methoxybenzoyl)amino]piperidin-1-yl}-L-norvaline] | < 100 nM | – | –
8 | CC[C@@H]1C(=O)N(C)c2cnc(Nc3ccc(C(=O)NC4CCN(CCC[C@@H](N)C(=O)O)CC4)cc3OC)nc2N1C1CCCC1 [Example 47, 5-{4-[(4-{[(7R)-8-Cyclopentyl-7-ethyl-5-methyl-6-oxo-5,6,7,8-tetrahydropteridin-2-yl]amino}-3-methoxybenzoyl)amino]piperidin-1-yl}-D-norvaline] | < 100 nM | – | –
9 | CC[C@@H]1C(=O)N(C)c2cnc(Nc3ccc(OCC[C@H](N)C(=O)O)cc3)nc2N1C1CCCC1 [Example 36, O-(4-{[(7R)-8-Cyclopentyl-7-ethyl-5-methyl-6-oxo-5,6,7,8-tetrahydropteridin-2-yl]amino}phenyl)-L-homoserine] | < 100 nM | – | –
10 | CC[C@@H]1C(=O)N(C)c2cnc(Nc3ccc(C(=O)NC4C5CN(CC[C@H](N)C(=O)O)CC54)cc3OC)nc2N1C1CCCC1 (stereo partly drawn) [Example 45, (2S)-2-Amino-4-{6-[(4-{[(7R)-8-cyclopentyl-7-ethyl-5-methyl-6-oxo-5,6,7,8-tetrahydropteridin-2-yl]amino}-3-methoxybenzoyl)amino]-3-azabicyclo[3.1.0]hex-3-yl} butanoic acid] | < 100 nM | – | –
11 | CC[C@@H]1C(=O)N(C)c2cnc(Nc3ccc(C(=O)NCc4ccc(OCC[C@H](N)C(=O)O)cc4)cc3OC)nc2N1C1CCCC1 [Example 41, O-(4-{[(4-{[(7R)-8-Cyclopentyl-7-ethyl-5-methyl-6-oxo-5,6,7,8-tetrahydropteridin-2-yl]amino}-3-methoxybenzoyl)amino]methyl}phenyl)-L-homoserine] | < 100 nM | – | –
12 | CC[C@@H]1C(=O)N(C)c2cnc(Nc3ccc(C(=O)NCCN4CCNC(C(=O)O)C4)cc3OC)nc2N1C1CCCC1 (stereo partly drawn) [Example 43, 4-{2-[(4-{[(7R)-8-Cyclopentyl-7-ethyl-5-methyl-6-oxo-5,6,7,8-tetrahydropteridin-2-yl]amino}-3-methoxybenzoyl)amino]ethyl}piperazine-2-carboxylic acid] | < 100 nM | – | –
13 | CCC1C(=O)N(C)c2cnc(Nc3ccc(C(=O)NCCC(N)C(=O)O)cc3OC)nc2N1C1CCCC1 [Example 38, (2S)-2-Amino-4-[(4-{[(7R)-8-cyclopentyl-7-ethyl-5-methyl-6-oxo-5,6,7,8-tetrahydropteridin-2-yl]amino}-3-methoxybenzoyl)amino]butananoic acid] | < 100 nM | – | –
14 | CC[C@@H]1C(=O)N(C)c2cnc(Nc3ccc(C(=O)Nc4ccc(C[C@H](N)C(=O)O)cc4)cc3OC)nc2N1C1CCCC1 [Example 33] | < 100 nM | – | –
15 | CC[C@@H]1C(=O)N(C)c2cnc(Nc3ccc(C(=O)NCCCC[C@H](N)C(=O)O)cc3OC)nc2N1C1CCCC1 [Example 40, N^6-(4-{[(7R)-8-cyclopentyl-7-ethyl-5-methyl-6-oxo-5,6,7,8-tetrahydropteridin-2-yl]amino}-3-methoxybenzoyl)lysine] | < 100 nM | – | –
16 | CC[C@@H]1C(=O)N(C)c2cnc(Nc3ccc(C(=O)NC4CCN(CC[C@H](N)C(=O)O)C4)cc3OC)nc2N1C1CCCC1 (stereo partly drawn) [Example 44, (2S)-2-amino-4-{3-[(4-{[(7R)-8-Cyclopentyl-7-ethyl-5-methyl-6-oxo-5,6,7,8-tetrahydropteridin-2-yl]amino}-3-methoxybenzoyl)amino]pyrrolidin-1-yl}butanoic acid] | < 100 nM | – | –
17 | CC[C@@H]1C(=O)N(C)c2cnc(Nc3ccc(OCC[C@H](N)C(=O)O)cc3OC)nc2N1C1CCCC1 [Example 37, O-(4-{[(7R)-8-Cyclopentyl-7-ethyl-5-methyl-6-oxo-5,6,7,8-tetrahydropteridin-2-yl]amino}-3-methoxyphenyl)-L-homoserine] | < 100 nM | – | –
18 | CC[C@@H]1C(=O)N(C)c2cnc(Nc3ccc(C(=O)N4CCNC(C(=O)O)C4)cc3OC)nc2N1C1CCCC1 (stereo partly drawn) [Example 52, 4-(4-{[(7R)-8-cyclopentyl-7-ethyl-5-methyl-6-oxo-5,6,7,8-tetrahydropteridin-2-yl]amino}-3-methoxbenzoyl)piperazine-2-carboxylic acid] | < 100 nM | – | –
19 | CC[C@@H]1C(=O)N(C)c2cnc(Nc3ccc(C(=O)NC4CCN(CC[C@@H](N)C(=O)O)CC4)cc3OC)nc2N1C1CCCC1 [Example 50, (2R)-2-Amino-4-{4-[(4-{[(7R)-8-cyclopentyl-7-ethyl-5-methyl-6-oxo-5,6,7,8-tetra hydropteridin-2-yl]amino}-3-methoxybenzoyl)amino]piperidin-1-yl}butanoic acid] | < 100 nM | – | –
20 | CC[C@@H]1C(=O)N(C)c2cnc(Nc3ccc(C(=O)NC4CCN(CC[C@H](N)C(=O)O)CC4)cc3C)nc2N1C1CCCC1 [Example 48, (2S)-2-Amino-4-{4-[(4-{[(7R)-8-cyclopentyl-7-ethyl-5-methyl-6-oxo-5,6,7,8-tetra hydropteridin-2-yl]amino}-3-methylbenzoyl)amino]piperidin-1-yl}butanoic acid] | < 100 nM | – | –
21 | CC[C@@H]1C(=O)N(C)c2cnc(Nc3ccc(C(=O)NC4CCN(CC[C@H](N)C(=O)O[C@@H]5C[C@H](C)CC[C@H]5C(C)C)CC4)cc3OC)nc2N1C1CCCC1 [Example 32] | < 100 nM | – | –
22 | CC[C@@H]1C(=O)N(C)c2cnc(Nc3ccc(C(=O)N4CCNC(C(=O)O)C4)cc3OC)nc2N1C1CCCC1 (stereo partly drawn) [Example 42, 4-(4-{[(7R)-8-Cyclopentyl-7-ethyl-5-methyl-6-oxo-5,6,7,8-tetrahydropteridin-2-yl]amino}-3-methoxybenzoyl)piperazine-2-carboxylic acid] | < 100 nM | – | –
23 | CC[C@@H]1C(=O)N(C)c2cnc(Nc3ccc(C[C@H](N)C(=O)O)cc3)nc2N1C1CCCC1 [Example 34, 4-{[(7R)-8-Cyclopentyl-7-ethyl-5-methyl-6-oxo-5,6,7,8-tetrahydropteridin-2-yl]amino}-L-phenylalanine] | < 100 nM | – | –
